Measurements as given in patent US20130323171A1, “RADIOLABELED BBN ANALOGS FOR PET IMAGING OF GASTRIN-RELEASING PEPTIDE RECEPTORS” (priority 2012, published 2013).
Square brackets hold non-standard residues; d marks the D form. Peptide text beside a SMILES is read from it. Sta = CC(C)C[C@H](N)[C@@H](O)CC(=O)O; 4Abz = Nc1ccc(C(=O)O)cc1

Columns and labels:
[1] = Mouse serum stability of the PET probes; type: in vitro ADME; settings: 37° C., 1 h
Description: The in vitro stability of the PET probes was evaluated by incubation with mouse serum (1 mL) at 37° C. for 1 h. The solutions were filtered using a NanoSep 10 K centrifuge (Pall Corp.) to isolate low-molecular-weight radiocomplexes. The samples were analyzed by the radio-HPLC, and the percentages of intact PET probe were determined by quantifying the peaks corresponding with the intact probe and degradation products.
More than 95% of the probes remained intact after 1 h of incubation in mouse serum at 37° C.

[2] = molecular target: T1, GRPR (Homo sapiens, UniProt P30550); assay: Cell-binding assay: inhibition of ^125I-[Tyr4]BBN binding on PC3 cells; settings: 0.06 nM radioligand, 37° C., 1 h, n=4, mean±SD
T1 construct: endogenous in cells; host or cells: PC3 cells
T1 sequence (P30550 whole entry): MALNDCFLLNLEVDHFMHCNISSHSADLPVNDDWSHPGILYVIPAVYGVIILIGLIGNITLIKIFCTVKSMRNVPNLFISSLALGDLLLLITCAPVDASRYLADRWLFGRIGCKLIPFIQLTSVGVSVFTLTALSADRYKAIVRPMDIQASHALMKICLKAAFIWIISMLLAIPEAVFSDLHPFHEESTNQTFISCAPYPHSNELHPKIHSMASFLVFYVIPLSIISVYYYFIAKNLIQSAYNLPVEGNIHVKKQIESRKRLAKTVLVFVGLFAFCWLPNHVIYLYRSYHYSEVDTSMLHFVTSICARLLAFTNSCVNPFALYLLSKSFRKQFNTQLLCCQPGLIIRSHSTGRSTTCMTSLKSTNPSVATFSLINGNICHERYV
Description: The cell-binding assay was performed similarly as previously reported (18, 35). Briefly, the PC3 cells (3×10^4) were incubated with 0.06 nM ^125I-[Tyr4]BBN and varying concentrations of peptides in the binding buffer (RPMI 1640+2 mg/mL BSA+5.2 mg/mL HEPES) at 37° C. for 1 h. The cell-bound, residual radioactivity after washing was determined by gamma counting. […] The experiments were performed in quadruplicate.
All of these peptides inhibited the GRPR-binding of ^125I-[Tyr4]BBN on the PC3 cells in a concentration-dependent manner.

| SMILES | stability in mouse serum [1] | IC50 [2] [nM] |
| --- | --- | --- |
| CSCC[C@H](NC(=O)[C@H](CC(C)C)NC(=O)[C@H](Cc1c[nH]cn1)NC(=O)CNC(=O)[C@@H](NC(=O)[C@H](C)NC(=O)[C@H](Cc1c[nH]c2ccccc12)NC(=O)[C@H](CCC(N)=O)NC(=O)c1ccc(NC(=O)CNC(=O)CCC(C(=O)O)N2CCN(CC(=O)O)CCN(CC(=O)O)CC2)cc1)C(C)C)C(N)=O (single isomer, unassigned) [^64Cu-NODAGA-AMBA, metal not drawn] | exhibited degradation | – |
| CSCC[C@H](NC(=O)[C@H](CC(C)C)NC(=O)[C@H](Cc1c[nH]cn1)NC(=O)CNC(=O)[C@@H](NC(=O)[C@H](C)NC(=O)[C@H](Cc1c[nH]c2ccccc12)NC(=O)[C@H](CCC(N)=O)NC(=O)c1ccc(NC(=O)CN)cc1)C(C)C)C(N)=O [AMBA] | – | 0.17 ± 0.07 |
| CC(C)C[C@H](NC(=O)C[C@H](O)[C@H](CC(C)C)NC(=O)[C@H](Cc1c[nH]cn1)NC(=O)CNC(=O)[C@@H](NC(=O)[C@H](C)NC(=O)[C@H](Cc1c[nH]c2ccccc12)NC(=O)[C@H](CCC(N)=O)NC(=O)[C@@H](Cc1ccccc1)NC(=O)c1ccc(NC(=O)CN)cc1)C(C)C)C(N)=O [RM1, G-4-aminobenzoyl-D-Phe-Gln-Trp-Ala-Val-Gly-His-Sta-Leu-NH2] (H-G[4Abz][dF]QWAVGH[Sta]L-NH2; N-terminus assumed) | – | 0.25 ± 0.04 |
